Laboratory results published in patent publication US5591757A, “Dihydropyridine composition” (Yamanouchi Pharmaceutical Co., Ltd., priority 1984, dated 1997).
Like-named read-outs stand apart in the source and are kept apart here.

What was measured:
[1] = test system: dog coronary artery; assay: Effect on 3,4-diaminopyridine (3,4-DAP)-induced rythmic contraction; type: cell-based; details: Canis lupus familiaris, read-out: IC50, 3,4-DAP contraction
Procedure: The ring segments were cannulated with two triangle stainless-steel hooks and suspended vertically in Krebs-Henseleit solution under the same condition described previously. Preparations were set up under a resting tension of 1.0 g and rhythmic contractions were induced by application of 10 mM 3,4-DAP. Test compound was cumulatively added into the medium. IC50 was estimated from dose-response curves (Table 2, column 2).

[2] = test system: rabbit thoracic aorta; assay: Effect on KCl-induced contraction of rabbit aorta; details: Oryctolagus cuniculus, read-out: IC50, K contraction
[3] = test system: left coronary artery; assay: Coronary vasodilating effects in dogs (intracoronary); type: in vivo, mongrel dogs
Procedure: Mongrel dogs of either sex were anesthetized and ventilated as previously described. A thoracotomy was performed at the 4th intercostal space. Following an intravenous injection of heprin (1000 units/kg), blood from the distal end of the cannulated carotid artery was pumped into circumflex branch of the left coronary artery using a servocontrolled peristaltic pump which maintained a constant perfusion pressure of 120 mmHg by means of a pump controller. An electromagnetic flow probe was inserted in the circit to record blood flow through the cannulated coronary artery. The test compounds were administered directly into the rubber tubing connected close to the coronary artery cannula.

[4] = test system: mean arterial blood pressure (MBP) and coronary blood flow (Cor. BF); assay: Hemodynamic effects in anesthetized open-chest dogs (i.v.); type: in vivo, mongrel dogs; details: Canis lupus familiaris; for change in vivo at 0.1 mg/kg: iv; for change in vivo at 0.3 mg/kg: 0.3 mg/kg iv, anesthetized dogs
Procedure: Mongrel dogs of either sex were anesthetized with pentobarbital sodium (30 mg/kg iv). The animals were artificially ventilated with room air. The chest was opened at the left 4th intercostal space. Mean arterial blood pressure (MBP), heart rate (HR), left ventricular pressure (LVP), max. dLVP/dt, mean pulmonary arterial blood pressure (MPAP), cardiac output (CO) and coronary blood flow (Cor. BF) were measured. The test compounds were injected into the femoral vein. […] BF from control values induced by intravenous injection of test compounds.

[5] = molecular target: calcium channels; assay: [^3 H]-nitrendipine binding to rat brain membrane
[6] = molecular target: T1, Beta-adrenoceptor (Rattus norvegicus, UniProt P18090); assay: cell-based; details: isolated rat right atria, (-)-isoproterenol-induced positive chronotropy; read-out: KB (antagonist dissociation constant)
Description: Beta-adrenoceptor blocking effect of test compounds was estimated by antagonism of (-)-isoproterenol-induced positive chronotropy.

[7] = molecular target: T1, Beta-adrenoceptor; assay: Intrinsic sympathomimetic activity (ISA) in reserpinized rats; type: in vivo, male Wistar rats; set-up: The rats were anesthetized with pentobarbital sodium; from tissue; host or cells: heart in the living anesthetized male Wistar rat (reserpine-pretreated, vagotomized); details: reserpine-pretreated rats, iv
Procedure: (§1) The rats were pretreated with reserpine (8 mg/kg ip), 18 hr before experiments. […] The heart rate was measured with a cardiotachometer triggered by the QRS of the ECG (lead II) and recorded on a polygraph. After the Control response to isoproterenol at a dose of 0.1 μg/kg iv was obtained, the test compound was injected iv in increasing doses at 20 min intervals.
In this series of experiments, intrinsic sympathomimetic activity (ISA) was also evaluated.

[8] = molecular target: T1, Beta-adrenoceptor; assay: Beta-adrenoceptor blocking effect in reserpinized rats (isoproterenol chronotropy); type: in vivo, male Wistar rats; set-up: The rats were anesthetized with pentobarbital sodium; from tissue; host or cells: heart in the living anesthetized male Wistar rat (reserpine-pretreated, vagotomized); details: isoproterenol 0.1 μg/kg iv, cumulative iv doses, read-out: Beta-Blocking ED50 (50% blockade of positive chronotropic response to isoproterenol)
Procedure: as §1

[9] = read-out: percent change of Cor. BF from control
[10] = read-out: percent change of MBP from control
[11] = dog coronary artery, 10 mM 3,4-DAP

T1 sequence (P18090 whole entry): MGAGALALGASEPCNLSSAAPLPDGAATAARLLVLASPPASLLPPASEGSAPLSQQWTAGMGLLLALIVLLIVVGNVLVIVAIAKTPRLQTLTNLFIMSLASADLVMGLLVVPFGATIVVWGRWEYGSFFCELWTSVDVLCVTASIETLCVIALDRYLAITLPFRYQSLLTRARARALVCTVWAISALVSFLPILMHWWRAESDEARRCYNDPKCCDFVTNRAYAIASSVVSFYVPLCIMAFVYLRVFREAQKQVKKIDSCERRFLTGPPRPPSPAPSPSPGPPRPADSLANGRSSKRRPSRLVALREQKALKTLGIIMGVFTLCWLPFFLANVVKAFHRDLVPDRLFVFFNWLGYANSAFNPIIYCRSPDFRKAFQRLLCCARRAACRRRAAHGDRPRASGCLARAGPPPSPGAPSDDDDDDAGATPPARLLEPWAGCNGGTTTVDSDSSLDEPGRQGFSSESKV

Compound | IC50 [1] [µM] | IC50 [2] [µM] | ED100 pap (dose for 100% increase of Cor. BF; maximum response to papaverine 300 μg ia = 100%) [3] [μg ia] | change in vivo at 0.1 mg/kg [4, 9] [%] | change in vivo at 0.1 mg/kg [4, 10] [%] | IC50 [1, 11] [µM] | IC50 [5] [µM] | Ki [5] [µM] | Slope, ^3 H-Nitrendipine binding [5] | Kb [6] [µM] | Duration of action of coronary vasodilating effect ([3]; intracoronary (ia)) [min] | change in vivo at 0.3 mg/kg [4, 9] [%] | change in vivo at 0.3 mg/kg [4, 10] [%] | ISA (increase in HR) [7] | ED50 [8] [mg/kg]
COc1ccc(CCN(C)CCCC(C#N)(c2ccc(OC)c(OC)c2)C(C)C)cc1OC (stereo not shown) [Verapamil, reference compound] | 0.126 | 0.075 | 8 | 95 | -23 |  |  |  |  |  |  |  |  |  | 
COC(=O)C1=C(C)NC(C)=C(C(=O)OCCN(C)Cc2ccccc2)C1c1cccc([N+](=O)[O-])c1 (stereo not shown) [Nicardipine, reference compound] |  | 0.001 |  |  |  | 0.0021 | 0.0016 | 0.0009 | 0.90 |  |  |  |  |  | 
COC(=O)C1=C(C)NC(C)=C(C(=O)OCCCCCCNCC(O)COc2ccccc2)C1c1cccc([N+](=O)[O-])c1.Cl (stereo not shown) [Example 12, 6-(2-hydroxy-3-phenoxy-propylamino)hexyl methyl 2,6-dimethyl-4-(m-nitro-phenyl)-1,4-dihydropyridine-3,5-dicarboxylate hydrochloride] |  | 0.033 | 100 |  |  | 0.019 | 0.012 | 0.00615 | 1.38 | 0.063 | > 60 | 45 | -26 | - | 0.6
